Data reported in patent publication US20240132492A1, “PYRIDOPYRIMIDINE-BASED COMPOUND AND APPLICATION THEREOF” (JINAN UNIVERSITY, priority 2021, published 2024).
Blank lines part the entries; values can stand above or below the compound they belong to.

Columns and labels:
Format in all cases: cell-based
[1] = biological target: T1, AKT1 (Homo sapiens, UniProt P31749); assay: Western Blot, degradation of AKT1 protein in H1975-OR cells; settings: 1000 nM, 24 hours, maximum degradation rate
T1 construct: AKT1, AKT2, and AKT3 proteins in H1975-OR cells; endogenous in cells; host or cells: H1975-OR (osimertinib-resistant H1975)
T1 sequence (P31749 whole entry): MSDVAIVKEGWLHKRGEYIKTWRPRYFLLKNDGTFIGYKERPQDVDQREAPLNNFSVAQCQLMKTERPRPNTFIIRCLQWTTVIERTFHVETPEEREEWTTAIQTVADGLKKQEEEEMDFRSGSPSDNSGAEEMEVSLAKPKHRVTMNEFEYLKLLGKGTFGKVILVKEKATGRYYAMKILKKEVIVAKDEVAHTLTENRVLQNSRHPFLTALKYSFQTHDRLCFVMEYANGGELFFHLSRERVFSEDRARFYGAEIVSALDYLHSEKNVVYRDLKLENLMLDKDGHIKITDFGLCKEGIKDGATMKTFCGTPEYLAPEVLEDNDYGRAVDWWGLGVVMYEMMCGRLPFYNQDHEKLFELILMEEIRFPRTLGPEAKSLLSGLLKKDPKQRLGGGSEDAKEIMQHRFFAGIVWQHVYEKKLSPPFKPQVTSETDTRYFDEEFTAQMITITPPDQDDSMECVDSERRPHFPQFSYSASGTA
How it was run: (§1)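 H1975-OR cells are Osimertinib-resistant H1975, adapted stepwise from 50 nM to 3 μM Osimertinib. Cells were treated with compound for 24 h, lysed, and immunoblotted with ECL detection. Band grayscale density was quantified.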

[2] = biological target: T2, AKT2 (Homo sapiens, UniProt P31751); assay: Western Blot, degradation of AKT2 protein in H1975-OR cells; settings: 1000 nM, 24 hours, maximum degradation rate
T2 construct: AKT1, AKT2, and AKT3 proteins in H1975-OR cells; endogenous in cells; host or cells: H1975-OR (osimertinib-resistant H1975)
T2 sequence (P31751 whole entry): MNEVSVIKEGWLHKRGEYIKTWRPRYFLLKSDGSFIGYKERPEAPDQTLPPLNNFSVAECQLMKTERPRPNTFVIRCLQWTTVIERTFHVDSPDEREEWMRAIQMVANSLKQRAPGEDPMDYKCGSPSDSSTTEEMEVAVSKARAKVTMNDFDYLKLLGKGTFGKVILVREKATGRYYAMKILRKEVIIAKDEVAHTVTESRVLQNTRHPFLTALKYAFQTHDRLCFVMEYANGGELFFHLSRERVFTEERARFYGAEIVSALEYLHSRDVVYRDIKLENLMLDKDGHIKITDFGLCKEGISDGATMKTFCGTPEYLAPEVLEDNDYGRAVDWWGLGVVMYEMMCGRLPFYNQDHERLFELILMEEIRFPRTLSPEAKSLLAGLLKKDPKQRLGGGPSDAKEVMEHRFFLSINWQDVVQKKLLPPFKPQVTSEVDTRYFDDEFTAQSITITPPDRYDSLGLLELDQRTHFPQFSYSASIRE
How it was run: as §1

[3] = tested on: H1975; assay: CCK-8 tumor cell proliferation, H1975; settings: Homo sapiens, NCI-H1975, H1975 cells, 72 hours
How it was run: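 Tumor cells grown in complete medium are exposed for 72 hours to compounds spanning 0.000508 μM to 10 μM. Viability is read by CCK-8 and IC50 derived by concentration-response fitting.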

[4] = tested on: H1975OR; assay: CCK-8 tumor cell proliferation, H1975OR; settings: H1975OR cells (Osimertinib resistant), 72 hours
How it was run: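 Osimertinib-resistant H1975 cells, selected by raising Osimertinib stepwise from 50 nM to 3 μM, were treated for 72 h with compound at 0.000508–10 μM. Proliferation was read by CCK-8, and IC50 came from fitting the concentration–response curve, given as mean ± SD.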

[5] = tested on: PC-9; assay: CCK-8 tumor cell proliferation, PC-9; settings: Homo sapiens, PC-9 cells, 72 hours
Experimental: (§2) Tumor cells (see Table 2 to Table 5) were inoculated in 96-well plates in complete culture medium (2000-3000 cells/well). After overnight incubation, the compounds with different concentrations (0.000508 μM-10 μM) were used to treat the cells separately for 72 hours. CCK-8 (Cell Counting Kit 8, Dojindo Laboratories, Kumamoto, Japan) experiment was used to evaluate cell proliferation. GraphPad Prism 5.0 software (La Jolla, CA) was used to calculate the half-maximal inhibitory concentration (IC50) values by fitting the concentration response curve. Each IC50 value was represented as an average value±SD.

[6] = tested on: A431; assay: CCK-8 tumor cell proliferation, A431; settings: Homo sapiens, A-431, A431 cells, 72 hours
Experimental: as §2

[7] = tested on: HCC827; assay: CCK-8 tumor cell proliferation, HCC827; settings: Homo sapiens, HCC827 cells, 72 hours
Experimental: as §2

[8] = tested on: H1299; assay: CCK-8 tumor cell proliferation, H1299; settings: Homo sapiens, NCI-H1299, H1299 cells, 72 hours
Experimental: as §2

[9] = biological target: AKT3 (Homo sapiens, UniProt Q9Y243); assay: Western Blot, degradation of AKT3 protein in H1975-OR cells; set-up: endogenous in cells; host or cells: H1975-OR (osimertinib-resistant H1975); settings: 1000 nM, 24 hours, maximum degradation rate
Chain of AKT3 (Q9Y243 whole entry): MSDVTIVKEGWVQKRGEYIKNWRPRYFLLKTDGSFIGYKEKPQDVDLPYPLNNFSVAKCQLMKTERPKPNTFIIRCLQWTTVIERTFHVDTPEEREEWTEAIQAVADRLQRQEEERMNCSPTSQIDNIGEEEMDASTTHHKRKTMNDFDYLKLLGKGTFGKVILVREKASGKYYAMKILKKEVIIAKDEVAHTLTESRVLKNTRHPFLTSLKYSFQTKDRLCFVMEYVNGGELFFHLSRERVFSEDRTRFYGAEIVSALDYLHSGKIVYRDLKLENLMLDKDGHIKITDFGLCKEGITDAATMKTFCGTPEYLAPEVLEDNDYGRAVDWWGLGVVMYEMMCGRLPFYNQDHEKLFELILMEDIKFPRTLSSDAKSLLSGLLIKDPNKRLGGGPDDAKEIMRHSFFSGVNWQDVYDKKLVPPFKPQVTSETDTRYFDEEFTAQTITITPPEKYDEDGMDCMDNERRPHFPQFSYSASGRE
How it was run: as §1

[10] = tested on: MDA-MB-231; assay: CCK-8 tumor cell proliferation, MDA-MB-231; settings: Homo sapiens, MDA-MB-231 cells, 72 hours
Experimental: as §2

[11] = tested on: MDA-MB-453; assay: CCK-8 tumor cell proliferation, MDA-MB-453; settings: Homo sapiens, MDA-MB-453 cells, 72 hours
Experimental: as §2

[12] = tested on: BT-549; assay: CCK-8 tumor cell proliferation, BT-549; settings: Homo sapiens, BT-549 cells, 72 hours
Experimental: as §2

[13] = tested on: Bel-7402; assay: CCK-8 tumor cell proliferation, Bel-7402; settings: Homo sapiens, Bel-7402 cells, 72 hours
Experimental: as §2

[14] = tested on: Huh7; assay: CCK-8 tumor cell proliferation, Huh7; settings: Homo sapiens, Huh-7, Huh7 cells, 72 hours
Experimental: as §2

[15] = tested on: HCC1937; assay: CCK-8 tumor cell proliferation, HCC1937; settings: Homo sapiens, HCC1937 cells, 72 hours
Experimental: as §2

[16] = tested on: A549; assay: CCK-8 tumor cell proliferation, A549; settings: Homo sapiens, A549 cells, 72 hours
Experimental: as §2

[17] = tested on: HCT116; assay: CCK-8 tumor cell proliferation, HCT116; settings: Homo sapiens, HCT-116, HCT116 cells, 72 hours
Experimental: as §2

[18] = tested on: K562; assay: CCK-8 tumor cell proliferation, K562; settings: Homo sapiens, K562 cells, 72 hours
Experimental: as §2

[19] = tested on: MIAPACA-2; assay: CCK-8 tumor cell proliferation, MIAPACA-2; settings: Homo sapiens, MIA PaCa-2, MIAPACA-2 cells, 72 hours
Experimental: as §2

[20] = tested on: PANC-1; assay: CCK-8 tumor cell proliferation, PANC-1; settings: Homo sapiens, PANC-1 cells, 72 hours
Experimental: as §2

[21] = tested on: BXPC-3; assay: CCK-8 tumor cell proliferation, BXPC-3; settings: Homo sapiens, BXPC-3 cells, 72 hours
Experimental: as §2

SMILES: COc1nc(N2CCN(C(=O)CC34CC5CC(CC(C5)C3)C4)CC2)ccc1Nc1ncc2c(C)cc(=O)n(-c3cccc(NC(=O)C4CC4)c3)c2n1 [ZX-HYT-67, N-(3-(2-(6-(4-(2-((3R, 5R, 7R)-adamantan-1-yl)acetyl)piperazin-1-yl)-2-methoxypyridin-3-yl))amino)-5-methyl-7-oxypyridino [2,3-d] pyrimidin-8 (7H)-yl) phenyl) cyclopropane formamide]
IC50 [12]: 0.376 µM
IC50 [14]: > 10 µM

SMILES: COc1nc(N2CCN(C(=O)NC34CC5CC(CC(C5)C3)C4)CC2)ccc1Nc1ncc2c(C)cc(=O)n(-c3cccc(NC(=O)C4CC4)c3)c2n1 [ZX-HYT-68, N-((3S, 5S, 7S)-adamantan-1-yl)-4-(5-((8-(3-(cyclopropaneformamido)phenyl)-5-methyl-7-oxy-7,8-dihydropyridino [2,3-d]pyrimidin-2-yl)amino)-6-methoxypyridin-2-yl) piperazin-1-formamide]
IC50 [12]: 0.0386 µM
IC50 [14]: > 10 µM

SMILES: COc1nc(N2CCN(C(=O)C34CC5CC(CC(C5)C3)C4)CC2)ccc1Nc1ncc2c(C)cc(=O)n(-c3cccc(NC(=O)C4CC4)c3)c2n1 [ZX-HYT-69, N-(3-(2-((6-(4-((3R, 5R, 7R)-adamantan-1-carbonyl)piperazin-1-yl)-2-methoxypyridin-3-yl)amino)-5-methyl-7-oxypyridino [2,3-d]pyrimidin-8 (7H)-yl)phenyl) cyclopropane formamide]
IC50 [12]: 3 µM
IC50 [14]: > 10 µM

SMILES: COc1cc(N2CCN(C(=O)CC34CC5CC(CC(C5)C3)C4)CC2)ncc1Nc1ncc2c(C)cc(=O)n(-c3cccc(NC(=O)C4CC4)c3)c2n1 [ZX-HYT-70, N-(3-(2-((6-(4-(2-((3R, 5R, 7R)-adamantan-1-yl)acetyl)piperazin-1-yl)-4-methoxypyridin-3-yl))amino)-5-methyl-7-oxypyridino [2,3-d]pyrimidin-8 (7H)-yl) phenyl) cyclopropane formamide]
IC50 [12]: 1.02 µM
IC50 [14]: > 10 µM

SMILES: COc1cc(N2CCN(C(=O)NC34CC5CC(CC(C5)C3)C4)CC2)ncc1Nc1ncc2c(C)cc(=O)n(-c3cccc(NC(=O)C4CC4)c3)c2n1 [ZX-HYT-71, N-((3S, 5S, 7S)-adamantan-1-yl)-4-(5-((8-(3-(cyclopropaneformamido)phenyl)-5-methyl-7-oxy-7,8-dihydropyridino [2,3-d]pyrimidin-2-yl)amino)-4-methoxypyridin-2-yl) piperazin-1-formamide]
IC50 [12]: 1.25 µM
IC50 [14]: > 10 µM

SMILES: COc1cc(N2CCN(C(=O)C34CC5CC(CC(C5)C3)C4)CC2)ncc1Nc1ncc2c(C)cc(=O)n(-c3cccc(NC(=O)C4CC4)c3)c2n1 [ZX-HYT-72, N-(3-(2-((6-(4-((3R, 5R, 7R)-adamantan-1-carbonyl)piperazin-1-yl)-4-methoxypyridin-3-yl)amino)-5-methyl-7-oxypyridino [2,3-d]pyrimidin-8 (7H)-yl)phenyl) cyclopropane formamide]
IC50 [12]: 0.626 µM
IC50 [14]: 3 µM

SMILES: COc1cc(N2CC3(CN(C(=O)CC45CC6CC(CC(C6)C4)C5)C3)C2)ccc1Nc1ncc2c(C)cc(=O)n(-c3cccc(NC(=O)C4CC4)c3)c2n1 [ZX-HYT-91, N-(3-(2-((4-(6-(2-((3R,5R,7R)-adamantan-1-yl)acetyl)-2,6-diazospira [3.3]hept-2-yl))-2-methoxyphenyl)amino)-5-methyl-7-oxypyridino [2,3-d]pyrimidin-8 (7H)-yl) phenyl) cyclopropane formamide]
IC50 [12]: 0.937 µM
IC50 [14]: 3 µM

Further lines, results first:

Dmax at 1 µM [1]: 56%
Dmax at 1 µM [2]: 0%
IC50 [3]: 0.554 ± 0.213 µM
IC50 [4]: 0.136 ± 0.0165 µM
IC50 [5]: 0.466 ± 0.0241 µM
IC50 [6]: 0.155 ± 0.0075 µM
IC50 [7]: 0.549 ± 0.247 µM
IC50 [8]: 2.17 ± 0.419 µM
Dmax at 1 µM [9]: 75.4%
SMILES: COc1cc(N2CCN(CCCCCCCCCCCCNC(=O)CC34CC5CC(CC(C5)C3)C4)CC2)ccc1Nc1ncc2c(C)cc(=O)n(-c3cccc(NC(=O)C(C)(C)C)c3)c2n1 [ZX-HYT-12]

Dmax at 1 µM [1]: 46.4%
Dmax at 1 µM [2]: 45.9%
IC50 [3]: 0.214 ± 0.013 µM
IC50 [4]: 0.023 ± 0.007 µM
IC50 [5]: 0.0234 ± 0.00578 µM
IC50 [6]: 0.0225 ± 0.0035 µM
IC50 [7]: 0.186 ± 0.122 µM
IC50 [8]: 2.1 ± 0.049 µM
Dmax at 1 µM [9]: 76.4%
SMILES: COc1cc(N2CCN(CCCCCCCCCCCCNC(=O)CC34CC5CC(CC(C5)C3)C4)CC2)ccc1Nc1ncc2c(C)cc(=O)n(-c3cccc(N)c3)c2n1 [ZX-HYT-17, 2-((3R, 5R, 7R)-adamantan-1-yl)-N-(12-(4-(4-(8-(3-aminophenyl)-5-methyl-7-oxy-7,8-dihydropyridino [2,3-d]pyrimidin-2-yl)amino)-3-methoxyphenyl)piperazin-1-yl) dodecyl) acetamide]

Dmax at 1 µM [1]: 0%
Dmax at 1 µM [2]: 0%
IC50 [3]: 2.29 µM
IC50 [4]: 3.46 µM
IC50 [10]: < 0.001 µM
IC50 [11]: > 10 µM
IC50 [12]: 0.00421 µM
IC50 [13]: 0.041 µM
Dmax at 1 µM [9]: 28%
SMILES: COc1cc(N2CCN(CCCCCCCCCCCCNC(=O)CC34CC5CC(CC(C5)C3)C4)CC2)ccc1Nc1ncc2c(C)cc(=O)n(-c3cccc(NCC4CC4)c3)c2n1 [ZX-HYT-19, 2-((3R, 5R, 7R)-adamantan-1-yl)-N-(12-(4-(4-(8-(3-((cyclopropylmethyl)amino)phenyl)-5-methyl-7-oxy-7,8-dihydropyridino [2,3-d]pyrimidin-2-yl)amino)-3-methoxyphenyl)piperazin-1-yl) dodecyl) acetamide]

IC50 [10]: 0.155 µM
IC50 [11]: > 10 µM
IC50 [12]: > 10 µM
IC50 [13]: > 10 µM
IC50 [14]: 0.632 µM
IC50 [15]: > 10 µM
IC50 [16]: 0.668 µM
IC50 [17]: 0.0119 µM
IC50 [18]: 0.0293 µM
IC50 [19]: 0.00864 µM
IC50 [20]: 0.0137 µM
IC50 [21]: 0.0421 µM
SMILES: COc1cc(N2CCN(C(=O)CC34CC5CC(CC(C5)C3)C4)CC2)ccc1Nc1ncc2c(C)cc(=O)n(-c3cccc(NC(=O)C4CC4)c3)c2n1 [ZX-HYT-50, N-(3-(2-((4-(4-(2-((3R, 5R, 7R)-adamantan-1-yl)acetyl)piperazin-1-yl)-2-methoxyphenyl)amino)-5-methyl-7-oxypyridino [2,3-d]pyrimidin-8 (7H)-yl)phenyl) cyclopropane formamide]

IC50 [10]: 0.0152 µM
IC50 [11]: > 10 µM
IC50 [12]: 0.141 µM
IC50 [13]: 0.37 µM
IC50 [15]: 4 µM
SMILES: COc1cc(N2CCN(C(=O)NC34CC5CC(CC(C5)C3)C4)CC2)ccc1Nc1ncc2c(C)cc(=O)n(-c3cccc(NC(=O)C4CC4)c3)c2n1 [ZX-HYT-64, N-((3S, 5S, 7S)-adamantan-1-yl)-4-(4-((8-(3-(cyclopropaneformamido)phenyl)-5-methyl-7-oxy-7,8-dihydropyridino [2,3-d]pyrimidin-2-yl)amino)-3-methoxyphenyl) piperazin-1-formamide]

IC50 [12]: 0.0267 µM
IC50 [14]: 0.12 µM
SMILES: COc1cc(N2CCC(C(=O)NCC34CC5CC(CC(C5)C3)C4)CC2)ccc1Nc1ncc2c(C)cc(=O)n(-c3cccc(NC(=O)C4CC4)c3)c2n1 [ZX-HYT-89, N-(((3R, 5R, 7R)-adamantan-1-yl)methyl)-1-(4-((8-(3-(cyclopropaneformamido)phenyl)-5-methyl-7-oxy-7,8-dihydropyridino [2,3-d]pyrimidin-2-yl)amino)-3-methoxyphenyl) piperidin-4-formamide]
